Test results reported in PMC8688152, “Distinct classes of potassium channels fused to GPCRs as electrical signaling biosensors” (Cell Reports Methods, 2021).

Experiments:
[1] = molecular target: T1, I252T mutant of M2_T-00-40 (UniProt P08172+P97438, I267T); type: cell-based, human (M2), mouse (TREK-1)
T1 construct: full-length (−00) or M2 deleted of its last nine residues (−09) in the indicated ICCRs; expressed in transfected cells; host or cells: Xenopus oocytes (mRNA injection)
Procedure: (§1) Xenopus oocytes were prepared as previously reported ([Moreau et al., 2008]). Briefly, after surgical retrieval, the oocytes were defolliculated by type 1A collagenase. Each oocyte was injected with 50 nl of RNAse-free water containing the desired mRNAs. The mRNA quantities used per oocyte were: ICCR with Kcv, 2.7 ng (M2_Kcv and D2_Kcv) and 2.9 ng (OXTR_Kcv); ICCR with mTREK-1, 4.2 ng; ICCR with Kir6.2, 4.3 ng; M2, 2.3 ng; D2, 2.2 ng; Kir3.4T, 2.2 ng; Kcv 0.46 ng and mTREK-1, 2.1 ng. Microinjected oocytes were incubated 2 to 3 days at 19°C in modified-Barth's solution (in mM: 1 KCl, 0.82 MgSO4, 88 NaCl, 2.4 NaHCO3, 0.41 CaCl2, 16 HEPES, pH 7.4) supplemented with 100 U.ml^−1 of penicillin and streptomycin and 0.1 mg.mL^−1 of gentamycin. Animal handling and experiments fully conformed to European regulations and were approved by the French Ministry of Higher Education and Research (APAFIS#4420-2016030813053199 v4 to CM). […]
(§2) Two-electrode voltage-clamp (TEVC) recordings were performed automatically with HiClamp robots (MultiChannel Systems). […] Ligand effects were measured in high potassium concentration buffer with the membrane potential clamped to −50 mV and at 19°C.
(§3) Change of potassium current induced by ligand was calculated either with the barium-sensitive currents as a 0-reference for Kcv-based ICCRs or with the currents in ND96 for mTREK-1 ICCRs. […]

[2] = system: I252T mutant of M2_T-00-40; type: cell-based, human (M2), mouse (TREK-1); conditions: ACh 5 μM; I252T versus WT M2_T-00-40
Procedure: as §1, §2, §3

[3] = system: Kir3.4T (Kir3.4(S143T)) co-expressed with M2_T constructs; assay: G protein activation assay: Kir3.4T co-expressed with M2_T ICCRs (TEVC); type: cell-based, Xenopus oocytes; conditions: 5 μM ACh
Procedure: (§4) Microelectrodes were filled with […]. […] The membrane voltage was clamped to −50 mV.

M2_T-00-40 = molecular target: T2, M2_T-00-40 (UniProt P08172+P97438); assay: TEVC recording of M2_T-00-40 ICCR in Xenopus oocytes; type: cell-based, human (M2), mouse (TREK-1); conditions: 91 mM K+, Vm = −50 mV, mean ± SEM
T2 construct: full-length (−00) or M2 deleted of its last nine residues (−09) in the indicated ICCRs; expressed in transfected cells; host or cells: Xenopus oocytes (mRNA injection)
Procedure: as §4

M2_T-00-43 S300A S333A = molecular target: T3, M2_T-00-43 S300A S333A (UniProt P08172+P97438, S315A/S348A); assay: TEVC recording of phosphorylation-deficient M2_T-00-43 S300A S333A; type: cell-based, human (M2), mouse (TREK-1); conditions: ACh 5 μM
T3 construct: full-length (−00) or M2 deleted of its last nine residues (−09) in the indicated ICCRs; expressed in transfected cells; host or cells: Xenopus oocytes (mRNA injection); gene synthesized by GeneCust
Procedure: as §4

M2_T-09-40 = molecular target: T4, M2_T-09-40 (UniProt P08172+P97438); assay: TEVC recording of M2_T-09-40 in Xenopus oocytes; type: cell-based, human (M2), mouse (TREK-1); conditions: ACh 5 μM
T4 construct: expressed in transfected cells; host or cells: Xenopus oocytes (mRNA injection)
Procedure: as §4

M2_T(G293E)-00-40 = molecular target: T5, M2_T(G293E)-00-40 (UniProt P08172+P97438, G308E); type: cell-based, human (M2), mouse (TREK-1); conditions: ACh 5 μM; TEVC, Xenopus oocytes; mean ± SEM
T5 construct: full-length (−00) or M2 deleted of its last nine residues (−09) in the indicated ICCRs; expressed in transfected cells; host or cells: Xenopus oocytes (mRNA injection)
Procedure: as §4

M2_T-00-43 = molecular target: T6, M2_T-00-43 (UniProt P08172+P97438); assay: TEVC recording of M2_T-00-43 ICCR in Xenopus oocytes; type: cell-based, human (M2), mouse (TREK-1); design: full-length (−00) or M2 deleted of its last nine residues (−09) in the indicated ICCRs; expressed in transfected cells; host or cells: Xenopus oocytes (mRNA injection)
T6 sequence (P08172+P97438 with tags, fused parts or gaps): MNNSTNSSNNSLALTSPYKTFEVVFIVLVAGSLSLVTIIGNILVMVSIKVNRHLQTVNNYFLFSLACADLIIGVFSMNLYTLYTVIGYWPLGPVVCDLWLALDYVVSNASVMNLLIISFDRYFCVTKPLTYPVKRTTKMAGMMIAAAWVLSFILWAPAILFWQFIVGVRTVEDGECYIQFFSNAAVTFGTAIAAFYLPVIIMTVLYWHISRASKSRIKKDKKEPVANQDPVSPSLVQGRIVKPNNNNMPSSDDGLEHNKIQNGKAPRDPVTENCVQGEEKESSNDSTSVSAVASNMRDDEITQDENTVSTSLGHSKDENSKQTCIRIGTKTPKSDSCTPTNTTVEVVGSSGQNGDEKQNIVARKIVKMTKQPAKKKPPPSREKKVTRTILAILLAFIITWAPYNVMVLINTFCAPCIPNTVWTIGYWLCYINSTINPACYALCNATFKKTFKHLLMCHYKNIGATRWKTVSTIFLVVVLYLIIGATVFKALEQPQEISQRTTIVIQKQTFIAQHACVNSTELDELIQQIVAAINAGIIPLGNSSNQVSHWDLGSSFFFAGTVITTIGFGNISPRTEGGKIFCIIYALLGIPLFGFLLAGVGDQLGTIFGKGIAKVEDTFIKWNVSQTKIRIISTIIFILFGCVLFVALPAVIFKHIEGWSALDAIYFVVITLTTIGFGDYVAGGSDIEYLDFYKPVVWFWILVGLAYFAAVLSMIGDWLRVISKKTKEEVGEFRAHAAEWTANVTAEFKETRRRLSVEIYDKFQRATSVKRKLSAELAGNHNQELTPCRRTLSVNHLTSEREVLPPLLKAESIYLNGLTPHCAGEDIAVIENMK
Procedure: Xenopus oocytes were prepared as previously reported ([Moreau et al., 2008]). Briefly, after surgical retrieval, the oocytes were defolliculated by type 1A collagenase. Each oocyte was injected with 50 nl of RNAse-free water containing the desired mRNAs. The mRNA quantities used per oocyte were: ICCR with Kcv, 2.7 ng (M2_Kcv and D2_Kcv) and 2.9 ng (OXTR_Kcv); ICCR with mTREK-1, 4.2 ng; ICCR with Kir6.2, 4.3 ng; M2, 2.3 ng; D2, 2.2 ng; Kir3.4T, 2.2 ng; Kcv 0.46 ng and mTREK-1, 2.1 ng. Microinjected oocytes were incubated 2 to 3 days at 19°C in modified-Barth's solution (in mM: 1 KCl, 0.82 MgSO4, 88 NaCl, 2.4 NaHCO3, 0.41 CaCl2, 16 HEPES, pH 7.4) supplemented with 100 U.ml^−1 of penicillin and streptomycin and 0.1 mg.mL^−1 of gentamycin. Animal handling and experiments fully conformed to European regulations and were approved by the French Ministry of Higher Education and Research (APAFIS#4420-2016030813053199 v4 to CM). Authorization of the animal facility has been delivered by the Prefect of Isere (Authorization #D 38 185 10 001).
Two-electrode voltage-clamp (TEVC) recordings were performed automatically with HiClamp robots (MultiChannel Systems). These TEVC robots rapidly change the applied solutions by transferring the oocytes in different wells of a 96-well plate. […] Microelectrodes were filled with […]. During recordings, oocytes were incubated in low potassium concentration buffer (ND96, in mM: 96 NaCl, 2 KCl, 1.8 CaCl2, 1 MgCl2, 5 HEPES, pH 7.4 supplemented with 0.3 niflumic acid), and in high potassium buffer (in mM: 91 KCl, 1.8 CaCl2, 1 MgCl2, 5 HEPES, 0.3 niflumic acid, pH 7.4). The membrane voltage was clamped to −50 mV. Ligands and BaCl2 were diluted in the high potassium buffer. […] Ligand effects were measured in high potassium concentration buffer with the membrane potential clamped to −50 mV and at 19°C.
Change of potassium current induced by ligand was calculated either with the barium-sensitive currents as a 0-reference for Kcv-based ICCRs or with the currents in ND96 for mTREK-1 ICCRs. Softwares created by Michel Vivaudou ([Vivaudou, 2019]) were used to extract the raw data.

Compound: CC(=O)OCC[N+](C)(C)C [ACh, acetylcholine]
- activation induced by ACh on the I252T mutant of M2_T-00-40 [1]: 84.7% ± 11.2%
- increase of ACh-induced activation of the I252T mutant compared with the WT counterpart [2]: more than 4 fold
- G protein activation (Kir3.4T) by M2_T-09-40 and -09-43 [3]: still able to activate Gi/o proteins
- activation of Kir3.4T co-expressed with M2_T-00-37, −40, −43 and −46 ([3]; no significant differences between the four constructs): clear activation
- activation: % of current change induced by ACh 5 μM on M2_T-00-40 (M2_T-00-40): 20.2% ± 3.5%
- activation of the S300A S333A double mutant of M2_T-00-43 by ACh (M2_T-00-43 S300A S333A): preserved activation
- regulation of M2_T-09-40 by ACh (M2_T-09-40): no significant regulation
- activation induced by ACh on the hyperactive G293E mutant of M2_T-00-40 (M2_T(G293E)-00-40): 32.5% ± 3.6%
- Hill coefficient (nH) on M2_T-00-43 (M2_T-00-43): 0.76
- activation: % of current change induced by ACh 5 μM on M2_T-00-43 (M2_T-00-43): 49.9% ± 5.1%
- activation: % of current change induced by ACh 5 μM on M2_T-00-43 co-expressed with PTX (M2_T-00-43; 5 μM, co-injection of mRNA for pertussis toxin S1 subunit, mean ± SEM): 49.3% ± 4.4%
